Source: patent publication EP2323645B1, “USE OF LOW-DOSE LOCAL ANAESTHETIC OR DERIVATIVES THEREOF FOR THERAPY OF CHRONIC PAIN, ESPECIALLY MIGRAINE” (priority 2008, dated 2010)

Experiments:
[1] = system: Phantom- oder Stumpfschmerz; details: 0,1 - 1,0 ml of 1 % solution; Gross, Anaesthesist 1985; cited from earlier work
[2] = system: Kopfschmerzen vom Spannungstyp; assay: Comparative trial of lidocaine, mepivacaine and bupivacaine in tension-type headache (infiltration anaesthesia C1 to C3); assay type: in vivo, Patienten; details: equipotent dilution 1:5 (Lidocain 0,1 Gew.-%, Bupivacain 0,05 Gew.-%, Mepivacain 0,1 Gew.-%), twice daily for 7 days, 3 male patients, 10-point pain scale
[3] = system: neuropathischen Schmerzen; details: 0.2 %, repeated epidural administration, rat model; Chiyo et al. 2008; cited from earlier work
Kopfschmerzen = details: 0,5 %, cervical intramuscular injection; Mellick et al. 2006; cited from earlier work
Neuralgien = details: 5 %; Katsushi et al.; cited from earlier work
Occipitalisneuralgie = assay: Treatment of occipital neuralgia; assay type: in vivo, Patienten
Text: (§1) Art und Umfang der beklagten Schmerzen und Beschwerden bestimmen unter (ausschließlich) neuroanatomischen und funktionspathologischen Gesichtspunkten die ursachenorientierte Auswahl von Injektionsort, Injektionsmenge und Injektionstiefe sowie die Auswahl der verwendeten Injektionskanülen, z.B. innerhalb einer Bandbreite zwischen 20 und 100 mm Länge, bei grundsätzlich identischer, jedoch gegenüber herkömmlicher Verfahrensweise grundlegend veränderter, Injektionstechnik (siehe z.B. Figuren 1 bis 3).
Behandlung: Je nach Untersuchungsbefund oberflächliche, großflächig ausgebrachte oder tiefe Injektionen des bzw. der betroffenen Nervenäste;

Trigeminusneuralgie = assay: Treatment of trigeminal neuralgia; assay type: in vivo, Patienten; details: superficial wide-area injection of the affected nerve branch; as a rule; rarely one or two repeat injections needed
Text: as §1
Behandlung: Oberflächliche, großflächig ausgebrachte Injektion des betroffenen Nervenastes am Ort seiner stärksten Irritation;

[4] = system: therapieresistenter chronischer Schulter-Arm-Schmerzen; assay: Treatment of therapy-resistant chronic shoulder-arm pain; assay type: in vivo, Patienten; details: 2 to 4 deep paravertebral injections, middle cervical spine, 0,1 Gew.-%
Text: as §1
Behandlung: 2 bis 4 tiefe, seitengleiche paravertebrale Injektionen in Gewebe der mittleren Halswirbelsäule.

chronisches LWS-Syndrom = assay: Treatment of therapy-resistant chronic pain of hips, legs and feet (chronic lumbar spine syndrome); assay type: in vivo, Patienten; details: single case, patient, left-sided syndrome for 10 years, repetitive injections L3 to L5 left
Text: as §1
Behandlung: 2 bis 4 tiefe, seitengleiche paravertebrale Injektionen in Gewebe der mittleren und unteren Lendenwirbelsäule bzw. der oberen Kreuzbeinregion (: L3 bis SI alternierend).
Aktueller Fall: • 71-jähriger Patient. Seit 10 Jahren progrediente Krankheitsentwicklung eines chronischen, linksseitigen LWS-Syndroms mit belastungsabhängigen Schmerzen und • Taubheitsgefühl in Oberschenkel und Knie sowie belastungsabhängigem, progredientem Kraftverlust des linken Beines. • Behandlung: Repetitive paravertebrale Injektionen L3 bis L5 links. • Ergebnis: Vollständige Remission aller Beschwerden nach 10 Behandlungssitzungen.

chronischer Verletzungen = assay: Treatment of chronic injuries
[5] = system: akuter kleinflächiger Verletzungen; assay: Treatment of acute small-area injuries
[6] = system: episodischer und chronischer Kopfschmerzen vom Spannungs-Typ; assay: Treatment of episodic and chronic tension-type headache; assay type: in vivo, Patienten
Text: as §1
(§2) Vor Behandlungsbeginn werden mit Ausnahme von Benzodiazepinderivaten sämtliche "schmerz- und beschwerdespezifische" Medikamente spontan abgesetzt. Benzodiazepinderivate werden schleichend eliminiert.
Behandlung: Die Anzahl der Injektionen und Injektionsorte sind abhängig vom aktuellen Untersuchungsbefund sowie von Patientenangaben zu Schmerzen und Beschwerden. Bevorzugt werden tiefe paravertebrale Injektionen in Gewebe der oberen und mittleren Halswirbelsäule vorgenommen, je Behandlungssitzung in der Regel 6 bis 8 Injektionen mit gegenüber der vorbeschriebenen Migräne-Behandlung geringerer Einstichtiefe.

[7] = system: Menstruationsbeschwerden (Menorrhagien); details: as a rule after two to four further identical sessions
chronischer Migräne = assay: Retrospective analysis of 84 chronic migraine patients treated with repeated deep dorsal cervico-thoracic sympathetic blocks; details: for Rückgang aller Schmerzen und Begleitsymptome auf: end of treatment
Migräne = assay: Treatment of migraine by local deep paravertebral injection of low-dose lidocaine; assay type: in vivo, Patienten; details: 0,1 Gew.-% in Ringer solution, usually 2 to 4 injections per session; within a few minutes; complete freedom from pain and complaints without typical relapse tendency
Text: as §1, §2
Anzahl der Injektionen und Injektionsorte sind abhängig vom aktuellen Untersuchungsbefund sowie von Patientenangaben zu Schmerzen und Beschwerden. Bevorzugt werden tiefe paravertebrale Injektionen von dorsal in antero-lateraler Stichführung in Gewebe der oberen Halswirbelsäule (s. Figur 2) oder der oberen Brustwirbelsäule (s. Figur 1) vorgenommen, je Behandlungssitzung in der Regel 2 bis 4 Injektionen.
(s. Figur 2: Einstichpunkte im Bereich der oberen und mittleren Halswirbelsäule) • Ergebnis: Der Patient war nach 2 ½ Behandlungstagen und seither dauerhaft schmerz- und beschwerdefrei.

spinaler Nozizeptoren = assay: Blockade of spinal nociceptors in healthy volunteers; assay type: in vivo, gesunden Probanden
Text: Die Verabreichung des hier beschriebenen niedrig-dosierten Lidocains oder eines 3-OH-oder 4-OH-Derivats davon in den hier beschriebenen niederen Konzentrationen, z.B. in der erfindungsgemäßen pharmazeutischen Zusammensetzung, kann, insbesondere in der Migräne-Therapie, durch Infiltrations-Anästhesie stattfinden, bspw. durch gezielte, simultane Infiltrations-Anästhesien an der Schädelbasis (ventrale Äste von C1) sowie der ventralen Äste der Spinal-Nerven C2 und C3 unter Anwendung einer pharmakologisch und technisch ziel- und zweckoptimierten Methode. Unter Einsatz der erfindungsgemäßen pharmazeutischen Zusammensetzungen lassen sich die oben beschriebenen Migräne-Schmerzen sowie die Symptome einer vestibulären Dysfunktion - Übelkeit und Schwindel - unabhängig von der vorbestehenden Anfallsdauer einer Migräne spontan und definitiv abortieren. Die Konzentration des dafür verwendeten Lidocains oder eines 3-OH- oder 4-OH-Derivats davon in der erfindungsgemäßen pharmazeutischen Zusammensetzung ist bevorzugt so eingestellt, dass keine motorischen oder Sensibilitäts-Störungen auftreten.

## Cc1cccc(C)c1NC(=O)C1CCCCN1C (centres unmarked) [Mepivacain]
[1]
  Patienten nachweisbar effektiv behandelt: ca. 80%
[2]
  Wirkung und Therapieeffekt gegenüber Lidocain: etwa vergleichbare Wirkung und Therapieeffekt

## CCCN1CCCC[C@H]1C(=O)Nc1c(C)cccc1C [Ropivacain]
[3]
  analgetischer Effekt: lang anhaltenden analgetischen Effekt

## CCCCN1CCCCC1C(=O)Nc1c(C)cccc1C (centres unmarked) [Bupivacain]
Kopfschmerzen
  Behandlungsergebnis: erfolgreich behandelt
[2]
  Wirkung und Therapieeffekt gegenüber Lidocain: etwa vergleichbare Wirkung und Therapieeffekt

## CCCCNc1ccc(C(=O)OCCN(C)C)cc1 [Tetracain]
Neuralgien
  Behandlungsergebnis: effektive Behandlung

## CCN(CC)CC(=O)Nc1c(C)cccc1C [Lidocain]
Occipitalisneuralgie; deep nerve branches, repeat injections necessary
  Ergebnis Tiefe Nervenäste: eher verzögert
Occipitalisneuralgie; superficial nerve branches, as a rule, rarely one or two repeat injections
  Ergebnis oberflächliche Nervenäste: Spontan-Remission
Trigeminusneuralgie
  Ergebnis: Spontan-Remission
[4]
  Remission von Schmerzen und Beschwerden: Spontane Remission
Chronisches LWS-Syndrom
  Vollständige Remission aller Beschwerden nach: 10 Behandlungssitzungen
Chronischer Verletzungen; in vivo
  Sensibilitätsstörungen: ohne Sensibilitätsstörungen
Chronischer Verletzungen; multiple repetition at 24-hour intervals
  Remission: schrittweisen und i.d.R. vollständigen Remission
Chronischer Verletzungen; targeted injections into the traumatised tissue
  Schmerzreduktion: spontane Schmerzreduktion
[5]; in vivo
  Sensibilitätsstörungen: ohne Sensibilitätsstörungen
[5]; one or two repetitions at 24-hour intervals, as a rule
  (Wund-)Heilungsdauer: Halbierung der sonst üblichen (Wund-)Heilungsdauer
[5]; superficial injections into the traumatised tissue
  Schmerzfreiheit: spontane Schmerzfreiheit
[6]; repeated treatment, stepwise lengthening of pain-free intervals
  Ergebnis der Repetition der Behandlung: dauerhaften Schmerzfreiheit
[6]; typical case, 0,1 Gew.-%
  Sensibilitätsstörungen: ohne die von Injektionen mit herkömmlicher Lokalanästhetika-Konzentration bekannten Sensibilitätsstörungen
[7]
  Blutungsmenge und Blutungsdauer: vollständige Normalisierung
Chronischer Migräne; 4-week treatment group (n=21)
  Rückgang aller Schmerzen und Begleitsymptome auf: 3,2%
Chronischer Migräne; 5-week treatment group (n=43)
  Rückgang aller Schmerzen und Begleitsymptome auf: 1,1%
Chronischer Migräne; 6-week treatment group (n=20)
  Rückgang aller Schmerzen und Begleitsymptome auf: 1,0%
Chronischer Migräne; after end of the treatment period, together with instructions on posture and lifestyle
  lang anhaltender therapeutischer Effekt: mindestens einigen Jahren
Chronischer Migräne; end of first week, all treatment periods of 4, 5 or 6 weeks, relative to last severe attack without medication, twice daily
  Rückgang der Gesamtsummen aller Schmerz-Intensitäten und Migräne-Begleitsymptome auf: < 10%
Chronischer Migräne; patients with concomitant tension-type headache
  Kopfschmerzen vom Spannungs-Typ: schrittweise bis zum Ende jeder Behandlungs-Periode beseitigt
Chronischer Migräne; under treatment
  Allgemeinbefinden: positive Zunahme
Migräne
  Anfallsdurchbrechung: vollständige Anfallsdurchbrechung
Spinaler Nozizeptoren
  Beeinträchtigung der Sensibilität: ohne Beeinträchtigung der Sensibilität
